The values below come from US10093664B2, “Bicyclo[1.1.1]pentane inhibitors of dual leucine zipper (DLK) kinase for the treatment of disease” (priority 2016, dated 2018).

The target in experiment [1] is T1, human DLK (Homo sapiens (Human), UniProt Q12852). In words: cell-based. The note with it: p-cJun (Ser63).
Procedure: HEK293 cells stably transfected with a Dox-inducible human DLK were plated into a 384-well plate in 20 μl (40,000 cells/well) of DMEM medium (without phenol red) containing 10% fetal bovine serum, 1.5 μg/ml doxycycline and 1 μg/ml puromycin. The cells as negative control were grown in the absence of doxycycline. The plate was incubated at 37° C., 5% CO2 for 20 h, before DMSO (control) or compounds diluted in medium were added. The cells were incubated at 37° C. for an additional 5 h, followed by lysis and the addition detection antibodies from p-cJun (Ser63) cellular assay kit (Cisbio) per manufacturer protocol. The standard dose response curves were fitted by Genedata Screener software using the variable-slope model: Signal=Signalnegative control+(SignalDMSO control−Signalnegative control)/(1+(IC50/Dose)^Hill slope). Only signal and dose in the equation were treated as known values.
Experiment [2] concerns the target T1, human DLK. In words: biochemical. Format: binding.
Procedure: The DLK dissociation constants (Kd) have been determined in the KINOMEscan KdELECT Service at DiscoveRx.
A fusion protein of full length of human DLK (amino acids 1-859) and the DNA binding domain of NFkB was expressed in transiently transfected HEK293 cells. From these HEK 293 cells, extracts were prepared in M-PER extraction buffer (Pierce) in the presence of Protease Inhibitor Cocktail Complete (Roche) and Phosphatase Inhibitor Cocktail Set II (Merck) per manufacturers' instructions. The DLK fusion protein was labeled with a chimeric double-stranded DNA tag containing the NFkB binding site (5′-[sequence]-3′) fused to an amplicon for qPCR readout, which was added directly to the expression extract (the final concentration of DNA-tag in the binding reaction is 0.1 nM).
The liganded beads were blocked with excess biotin and washed with blocking buffer (SeaBlock (Pierce), 1% BSA, 0.05% Tween 20, 1 mM DTT) to remove unbound ligand and to reduce nonspecific binding.
Extracts were used directly in binding assays without any enzyme purification steps at a ≥10,000-fold overall stock dilution (final DNA-tagged enzyme concentration <0.1 nM). Extracts were loaded with DNA-tag and diluted into the binding reaction in a two step process. First extracts were diluted 1:100 in 1× binding buffer (PBS/0.05% Tween 20/10 mM DTT/0.1% BSA/2 μg/ml sonicated salmon sperm DNA) containing 10 nM DNA-tag. This dilution was allowed to equilibrate at room temperature for 15 minutes and then subsequently diluted 1:100 in 1× binding buffer. Test compounds were prepared as 111× stocks in 100% DMSO. Kds were determined using an 11-point 3-fold compound dilution series with three DMSO control points. […] The compounds were then diluted directly into the assays such that the final concentration of DMSO was 0.9%. All reactions performed in polypropylene 384-well plates. Each was a final volume of 0.02 mL. Assays were incubated with shaking for 1 hour at room temperature. Then the beads were pelleted and washed with wash buffer (1×PBS, 0.05% Tween 20) to remove displaced kinase and test compound. […] The kinase concentration in the eluates was measured by qPCR. qPCR reactions were assembled by adding 2.5 μL of kinase eluate to 7.5 μL of qPCR master mix containing 0.15 μM amplicon primers and 0.15 μM amplicon probe. The qPCR protocol consisted of a 10 minute hot start at 95° C., followed by 35 cycles of 95° C. for 15 seconds, 60° C. for 1 minute.
Test compounds were prepared as 11× stocks in 100% DMSO. Kds were determined using an 11-point 3-fold compound dilution series with three DMSO control points. […] The compounds were then diluted directly into the assays such that the final concentration of DMSO was 0.9%. The Kds were determined using a compound top concentration of 30,000 nM. Kd measurements were performed in duplicate.
Binding constants (Kds) were calculated with a standard dose-response curve using the Hill equation:
The Hill Slope was set to −1.
Where [3] appears, read: Table 2b (global), additional assay runs on multiple batches, includes Table 2a data in the averaging, HEK293, read-out: Cell IC50.
Setting [4] is: Table 2b DLK activity (global), read-out: Kd.

Where two headings read alike, the source gives them in different places.

For the compound `Nc1ncc(-c2cn(C34CC(C3)C4)c([C@H](O)C(F)(F)F)n2)cc1C(F)(F)F` (single isomer, unassigned) [Example 6a], in experiment [1] (setting [3]), the IC50 – broadly, the midpoint of a concentration-inhibition curve – stood at 745 nM.
With `Nc1ncc(-c2cn(C34CC(C3)C4)c([C@@H](O)C(F)(F)F)n2)cc1C(F)(F)F` (single isomer, unassigned) [Example 6b], the Kd (in general, the constant that tells how readily two partners part at equilibrium) in experiment [2] (setting [4]) amounted to 0.74 nM. In addition, the IC50 in experiment [1] (setting [3]) came to 38.7 nM.
With `Nc1ncc(-c2cn(C34CC(N5CCOCC5)(C3)C4)c([C@H](O)C(F)(F)F)n2)cc1OC(F)(F)F` (single isomer, unassigned) [Example 8a], the Kd in experiment [2] (setting [4]) came to 0.36 nM. Moreover, the IC50 in experiment [1] (setting [3]) amounted to 24.8 nM.
For the compound `Nc1ncc(-c2cn(C34CC(N5CCOCC5)(C3)C4)c([C@@H](O)C(F)(F)F)n2)cc1OC(F)(F)F` (single isomer, unassigned) [Example 8b], the IC50 in experiment [1] (setting [3]) is 284 nM.
As for `C#CCN1CCN(C23CC(n4cc(-c5cnc(N)c(OC(F)(F)F)c5)nc4[C@@H](O)C(C)C)(C2)C3)CC1` (single isomer, unassigned) [Example 9a], in experiment [1] (setting [3]), the IC50 stood at 20.2 nM.
In the case of `C#CCN1CCN(C23CC(n4cc(-c5cnc(N)c(OC(F)(F)F)c5)nc4[C@H](O)C(C)C)(C2)C3)CC1` (single isomer, unassigned) [Example 9b], the concentration for half-maximal inhibition (IC50) in experiment [1] (setting [3]) was 684 nM.
As to `Nc1ncc(-c2cn(C34CC(N5CCOCC5)(C3)C4)c(C(O)C(F)(F)F)n2)cc1C(F)(F)F` (single isomer, unassigned) [Example 69a, 1-(4-(6-amino-5-(trifluoromethyl)pyridin-3-yl)-1-(3-morpholinobicyclo[1.1.1]pentan-1-yl)-1H-imidazol-2-yl)-2,2,2-trifluoroethan-1-ol], in experiment [2] (setting [4]), the Kd was determined as 0.36 nM. In addition, the IC50 in experiment [1] (setting [3]) was found to be 36.7 nM.
As to `Nc1ncc(-c2cn(C34CC(N5CCOCC5)(C3)C4)c(C(O)C(F)(F)F)n2)cc1C(F)(F)F` (single isomer, unassigned) [Example 69b, 1-(4-(6-amino-5-(trifluoromethyl)pyridin-3-yl)-1-(3-morpholinobicyclo[1.1.1]pentan-1-yl)-1H-imidazol-2-yl)-2,2,2-trifluoroethan-1-ol], the 50% inhibitory concentration (IC50) in experiment [1] (setting [3]) is 722 nM.
In the case of `Nc1ncc(-c2cn(C34CC(N5CCOCC5)(C3)C4)c(C3CC3)n2)cc1C(F)(F)F` [Example 4], the Kd amounted to 8.3 nM in experiment [2] (setting [4]) and 13 nM in experiment [2] (read-out: Avg DLK Kd). Moreover, the half-maximal inhibitory concentration (IC50) in experiment [1] (Table 2a, HEK293 cells, Dox-inducible human DLK, 5 h compound, read-out: Avg Phospho-cJun Cell IC50) is 366 nM; in experiment [1] (setting [3]) it was 400 nM.
Consider `CCCN1CCN(C23CC(n4cc(-c5cnc(N)c(OC(F)(F)F)c5)nc4[C@@H](O)C(C)C)(C2)C3)CC1` [Example 10, (S)-1-(4-(6-amino-5-(trifluoromethoxy)pyridin-3-yl)-1-(3-(4-(propyl)piperazin-1-yl)bicyclo[1.1.1]pentan-1-yl)-1H-imidazol-2-yl)-2-methylpropan-1-ol], for which, in experiment [2] (setting [4]), the Kd is 0.31 nM. In addition, the IC50 in experiment [1] (setting [3]) came to 13.9 nM.
In the same order, the values of `Nc1ncc(-c2cn(C34CC(N5CCS(=O)(=O)CC5)(C3)C4)c(C3CC3)n2)cc1OC(F)(F)F` [Example 13, 4-(3-(4-(6-amino-5-(trifluoromethoxy)pyridin-3-yl)-2-cyclopropyl-1H-imidazol-1-yl)bicyclo[1.1.1]pentan-1-yl)thiomorpholine 1,1-dioxide] are 32 nM and 317 nM.
The corresponding values for `Nc1ncc(-c2cn(C34CC(N5CCN(CC(F)(F)F)CC5)(C3)C4)c(C3CC3)n2)cc1OC(F)(F)F` [Example 15, 5-(2-cyclopropyl-1-(3-(4-(2,2,2-trifluoroethyl)piperazin-1-yl)bicyclo[1.1.1]pentan-1-yl)-1H-imidazol-4-yl)-3-(trifluoromethoxy)pyridin-2-amine] are 18 nM and 540 nM.
The corresponding values for `CS(=O)(=O)N1CCN(C23CC(n4cc(-c5cnc(N)c(OC(F)(F)F)c5)nc4C4CC4)(C2)C3)CC1` [Example 16, 5-(2-cyclopropyl-1-(3-(4-(methylsulfonyl)piperazin-1-yl)bicyclo[1.1.1]pentan-1-yl)-1H-imidazol-4-yl)-3-(trifluoromethoxy)pyridin-2-amine] are 24 nM and 457 nM.
In the case of `Nc1ncc(-c2cn(C34CC(N5CCN(CCF)CC5)(C3)C4)c(C3CC3)n2)cc1OC(F)(F)F` [Example 17, 5-(2-cyclopropyl-1-(3-(4-(2-fluoroethyl)piperazin-1-yl)bicyclo[1.1.1]pentan-1-yl)-1H-imidazol-4-yl)-3-(trifluoromethoxy)pyridin-2-amine], the Kd in experiment [2] (setting [4]) was determined as 6.9 nM. The IC50 in experiment [1] (setting [3]) is 281 nM.
With `FC(F)(F)c1c[nH]c2ncc(-c3cn(C45CC(N6CCOCC6)(C4)C5)c(C4CC4)n3)cc12` [Example 18, 4-(3-(2-cyclopropyl-4-(3-(trifluoromethyl)-1H-pyrrolo[2,3-b]pyridin-5-yl)-1H-imidazol-1-yl)bicyclo[1.1.1]pentan-1-yl)morpholine], in experiment [2] (setting [4]), the Kd worked out at 1.9 nM. Besides, in experiment [1] (setting [3]), the IC50 came out at 155 nM.
In the same order, the values of `Nc1ncc(-c2cn(C34CC(N5CCCCC5)(C3)C4)c(C3CC3)n2)cc1OC(F)(F)F` [Example 19, 5-(2-cyclopropyl-1-(3-(piperidin-1-yl)bicyclo[1.1.1]pentan-1-yl)-1H-imidazol-4-yl)-3-(trifluoromethoxy)pyridin-2-amine] are 14 nM and 600 nM.
The corresponding values for `c1cc2ncc(-c3cn(C45CC(N6CCOCC6)(C4)C5)c(C4CC4)n3)cc2[nH]1` [Example 20, 4-(3-(2-cyclopropyl-4-(1H-pyrrolo[3,2-b]pyridin-6-yl)-1H-imidazol-1-yl)bicyclo[1.1.1]pentan-1-yl)morpholine] are 7500 nM and 12000 nM.
Regarding `FCCn1ccc2ncc(-c3cn(C45CC(N6CCOCC6)(C4)C5)c(C4CC4)n3)cc21` [Example 21, 4-(3-(2-cyclopropyl-4-(1-(2-fluoroethyl)-H-pyrrolo[3,2-b]pyridin-6-yl)-H-imidazol-1-yl)bicyclo[1.1.1]pentan-1-yl)morpholine, bis(2,2,2-trifluoroacetate)], the Kd in experiment [2] (setting [4]) amounted to 330 nM. Besides, the IC50 in experiment [1] (setting [3]) amounted to 5870 nM.
In the case of `CN1CCN(C23CC(n4cc(-c5cnc(N)c(OC(F)(F)F)c5)nc4C4CC4)(C2)C3)CC1=O` [Example 22, 4-(3-(4-(6-amino-5-(trifluoromethoxy)pyridin-3-yl)-2-cyclopropyl-1H-imidazol-1-yl)bicyclo[1.1.1]pentan-1-yl)-1-methylpiperazin-2-one], the Kd in experiment [2] (setting [4]) was found to be 9.7 nM. Further, the IC50 in experiment [1] (setting [3]) was 404 nM.
Consider `CN1CCN(C23CC(n4cc(-c5cnc(N)c(OC(F)(F)F)c5)nc4C4CC4)(C2)C3)C(=O)C1` [Example 23, 1-(3-(4-(6-amino-5-(trifluoromethoxy)pyridin-3-yl)-2-cyclopropyl-1H-imidazol-1-yl)bicyclo[1.1.1]pentan-1-yl)-4-methylpiperazin-2-one], for which, in experiment [2] (setting [4]), the dissociation constant (Kd) is 17 nM. For the same compound, the IC50 in experiment [1] (setting [3]) is 471 nM.
In the same order, the values of `COCCN(C)C12CC(n3cc(-c4cnc(N)c(OC(F)(F)F)c4)nc3C3CC3)(C1)C2` [Example 24, 5-(2-cyclopropyl-1-(3-((2-methoxyethyl)(methyl)amino)bicyo[1.1.1]pentan-1-yl)-1H-imidazol-4-yl)-3-(trifluoromethoxy)pyridin-2-amine] are 6.8 nM and 553 nM.
The corresponding values for `COCCN(CCOC)C12CC(n3cc(-c4cnc(N)c(OC(F)(F)F)c4)nc3C3CC3)(C1)C2` [Example 25, 5-(1-(3-(bis(2-methoxyethyl)amino)bicyclo[1.1.1]pentan-1-yl)-2-cyclopropyl-1H-imidazol-4-yl)-3-(trifluoromethoxy)pyridin-2-amine] are 6.4 nM and 389 nM.
The corresponding values for `Nc1ncc(-c2cn(C34CC(N5CCC(O)CC5)(C3)C4)c(C3CC3)n2)cc1OC(F)(F)F` [Example 26, 1-(3-(4-(6-amino-5-(trifluoromethoxy)pyridin-3-yl)-2-cyclopropyl-1H-imidazol-1-yl)bicyclo[1.1.1]pentan-1-yl)piperidin-4-ol] are 7 nM and 383 nM.
Turning to `CC(C)c1nc(-c2cnc3ccn(C(C)c4ccccn4)c3c2)cn1C12CC(N3CCOCC3)(C1)C2` (stereo not drawn) [Example 28, 4-(3-(2-isopropyl-4-(1-(1-(pyridin-2-yl)ethyl)-1H-pyrrolo[3,2-b]pyridin-6-yl)-1H-imidazol-1-yl)bicyclo[1.1.1]pentan-1-yl)morpholine], the Kd in experiment [2] (setting [4]) amounted to 2.9 nM. In addition, the IC50 in experiment [1] (setting [3]) amounted to 148 nM.
Take `N#CC1(c2nc(-c3cnc(N)c(OC(F)(F)F)c3)cn2C23CC(N4CCOCC4)(C2)C3)CC1` [Example 29, 1-(4-(6-amino-5-(trifluoromethoxy)pyridin-3-yl)-1-(3-morpholinobicyclo[1.1.1]pentan-1-yl)-1H-imidazol-2-yl)cyclopropane-1-carbonitrile]: the Kd in experiment [2] (setting [4]) came out at 20 nM. Besides, the IC50 in experiment [1] (setting [3]) was 531 nM.
On to `Nc1ncc(-c2cn(C34CC(N5CCOCC5)(C3)C4)c(C3CCOC3)n2)cc1OC(F)(F)F` (stereo not drawn) [Example 30, 5-(1-(3-morpholinobicyclo[1.1.1]pentan-1-yl)-2-(tetrahydrofuran-3-yl)-1H-imidazol-4-yl)-3-(trifluoromethoxy)pyridin-2-amine], for which the dissociation constant Kd in experiment [2] (setting [4]) stood at 390 nM. The 50% inhibitory concentration (IC50) in experiment [1] (setting [3]) was found to be 5110 nM.
Regarding `Nc1ncc(-c2cn(C34CC(C3)C4)c(C(O)C(F)(F)F)n2)cc1OC(F)(F)F` (stereo not drawn) [Example 63b, 1-(4-(6-amino-5-(trifluoromethoxy)pyridin-3-yl)-1-(bicyclo[1.1.1]pentan-1-yl)-1H-imidazol-2-yl)-2,2,2-trifluoroethan-1-ol], the Kd in experiment [2] (setting [4]) was 1.6 nM.
With `CCCN1CCN(C23CC(n4cc(-c5cnc(N)c(OC(F)(F)F)c5)nc4C(O)C(C)C)(C2)C3)CC1` (stereo not drawn) [Example 70, 1-(4-(6-amino-5-(trifluoromethoxy)pyridin-3-yl)-1-(3-(4-propylpiperazin-1-yl)bicyclo[1.1.1]pentan-1-yl)-1H-imidazol-2-yl)-2-methylpropan-1-ol], the IC50 in experiment [1] (setting [3]) stood at 923 nM.
